For data set [1] the following is noted: rat; cited from earlier work.
The conditions of data set [2]: humans, ingested in chocolate; cited from earlier work.
The next data set concerns the target T1, MRP2 efflux transporter (Homo sapiens, UniProt Q92887).
T1 construct: In a study of enterocyte absorption using human intestinal Caco-2 cells; endogenous in cells; host or cells: Caco-2
The following applies: human intestinal Caco-2 cells; cited from earlier work.

Data set [3] relates to mitochondrial complex proteins (MCP) I and V. The data set can be described thus: Western blot of mitochondrial complex proteins (MCP) in coronary artery endothelial cells. It is filed as cell-based, human (HCAEC) or bovine (BCAEC). The following applies: HCAEC or BCAEC, Western blot band intensity; results shown in FIG. 2. As for the experimental part: The effect of (−)-epicatechin analogs on mitochondrial complex proteins (MCP) I and V was studied human (HCAEC) or bovine (BCAEC) Coronary Artery Endothelial cells. Western blots were performed as follows: Approximately 50 mg of cells were homogenized with a polytron in 500 μl lysis buffer (1% triton X-100, 20 mM Tris, 140 mM NaCl, 2 mM EDTA, and 0.1% SDS) with protease and phosphatase inhibitor cocktails (P2714 and P2850, Sigma-Aldrich, St. Louis, Mo.) supplemented with 0.15 mM PMSF, 5 mM Na3VO4 and 3 mM NaF. Homogenates were passed through an insulin syringe five times, sonicated for 30 min at 4° C. and centrifuged (12,000 g) for 10 min. The total protein content was measured in the supernatant using the Bradford method. A total of 40 μg of protein was loaded onto a 4%-15% precast TGX polyacrylamide gel (Bio-rad), electrotransferred (12 V, 50 minutes), incubated for 1 h in blocking solution (5% nonfat dry milk in TBS plus 0.1% Tween 20 [TBS-T]). Blots were probed with a cocktail of monoclonal antibodies to electron transport chain proteins (OXPHOS) (20 KDa subunit of complex I, 26 KDa subunit of complex IV, subunit core 2 of complex III, 30 Kda complex II and ATP synthase 54 Kda complex V). […] The band intensities were digitally quantified using ImageJ software (http://www.nih.gov).
Background: In western blotting, separated proteins are transferred to a membrane and probed.

T1 sequence (Q92887 whole entry): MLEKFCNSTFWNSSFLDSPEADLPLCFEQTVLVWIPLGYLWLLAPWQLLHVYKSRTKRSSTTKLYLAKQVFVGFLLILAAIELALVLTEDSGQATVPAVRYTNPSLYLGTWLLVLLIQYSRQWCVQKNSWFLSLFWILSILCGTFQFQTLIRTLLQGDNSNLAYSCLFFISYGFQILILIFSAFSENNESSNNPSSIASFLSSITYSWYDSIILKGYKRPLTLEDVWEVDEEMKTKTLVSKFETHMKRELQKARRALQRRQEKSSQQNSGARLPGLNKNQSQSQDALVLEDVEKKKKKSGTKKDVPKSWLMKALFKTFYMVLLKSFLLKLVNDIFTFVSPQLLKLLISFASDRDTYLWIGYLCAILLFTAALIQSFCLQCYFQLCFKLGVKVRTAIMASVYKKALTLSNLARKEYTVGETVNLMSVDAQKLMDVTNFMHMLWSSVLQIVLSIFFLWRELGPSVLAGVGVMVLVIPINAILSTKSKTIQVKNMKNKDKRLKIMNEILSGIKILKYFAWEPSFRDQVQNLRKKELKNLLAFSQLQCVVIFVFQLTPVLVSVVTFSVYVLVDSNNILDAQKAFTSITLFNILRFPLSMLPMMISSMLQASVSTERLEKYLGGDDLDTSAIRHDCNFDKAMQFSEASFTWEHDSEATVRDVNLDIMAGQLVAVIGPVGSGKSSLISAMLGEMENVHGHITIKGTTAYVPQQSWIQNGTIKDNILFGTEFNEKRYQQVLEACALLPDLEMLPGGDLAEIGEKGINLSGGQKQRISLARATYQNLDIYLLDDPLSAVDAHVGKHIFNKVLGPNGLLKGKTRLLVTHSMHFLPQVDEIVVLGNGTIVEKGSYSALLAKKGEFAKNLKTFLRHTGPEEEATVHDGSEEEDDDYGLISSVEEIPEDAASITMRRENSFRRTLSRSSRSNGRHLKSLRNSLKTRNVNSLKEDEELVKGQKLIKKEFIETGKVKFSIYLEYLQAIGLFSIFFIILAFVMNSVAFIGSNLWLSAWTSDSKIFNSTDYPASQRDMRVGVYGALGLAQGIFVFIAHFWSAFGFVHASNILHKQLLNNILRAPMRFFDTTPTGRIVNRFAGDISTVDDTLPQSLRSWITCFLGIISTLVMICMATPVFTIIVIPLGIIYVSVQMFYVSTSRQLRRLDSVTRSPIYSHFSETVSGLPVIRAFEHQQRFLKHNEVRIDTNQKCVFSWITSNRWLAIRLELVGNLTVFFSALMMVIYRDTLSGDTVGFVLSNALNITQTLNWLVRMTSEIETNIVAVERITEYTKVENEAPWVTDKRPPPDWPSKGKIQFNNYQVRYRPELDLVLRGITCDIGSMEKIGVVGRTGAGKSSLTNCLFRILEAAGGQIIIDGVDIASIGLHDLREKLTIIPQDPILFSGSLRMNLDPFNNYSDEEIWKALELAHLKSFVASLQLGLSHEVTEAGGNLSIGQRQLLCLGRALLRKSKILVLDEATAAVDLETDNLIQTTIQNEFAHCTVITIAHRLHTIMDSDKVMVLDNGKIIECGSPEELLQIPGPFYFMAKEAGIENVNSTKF

Regarding `Oc1cc(O)c2c(c1)O[C@H](c1ccc(O)c(O)c1)[C@@H](O)C2` [(+)-catechin], in data set [1], the “effect on absorption of (−)-epicatechin” value is “inhibited”.

Regarding `Oc1cc(O)c2c(c1)O[C@H](c1ccc(O)c(O)c1)[C@H](O)C2` [(−)-epicatechin, (2R,3R)-2-(3,4-dihydroxyphenyl)chroman-3,5,7-triol], the fraction absorbed entry in data set [2] was “approximately 30%”. Further, the “efflux transporter substrate status” value at MRP2 efflux transporter is reported as “substrate of the MRP2 efflux transporter”.

Regarding `CN(C)C(=O)CCSC(SCCC(=O)O)c1cccc(/C=C/c2ccc3ccc(Cl)cc3n2)c1` (centres unmarked) [MK-571], the “effect of MRP2 inhibition on absorption of (−)-epicatechin” value on MRP2 efflux transporter was “increased absorption of (−)-epicatechin somewhat”.

Consider `COc1cc(OC)c2c(c1)O[C@H](c1ccc(O)c(O)c1)[C@H](O)C2` [5,7-dimethyl substituted (−)-epicatechin], for which the “effect on MCP (activity/potency) relative to (−)-epicatechin” value in data set [3] is on record as “less potent than the unsubstituted parent”.

The values are drawn from US9187448B2, “Flavonoid compounds” (CARDERO THERAPEUTICS, INC., priority 2011, dated 2015).
